Reference: PMC5065774 (Bioorganic & medicinal chemistry, 2016)

Tests used:
HDAC1 = HDAC1 (Homo sapiens, UniProt Q13547); assay: HDAC isozyme panel at BPS Bioscience, HDAC1; assay type: biochemical; conditions: read-out: % inhibition of HDAC1
HDAC3 = HDAC3 (Homo sapiens, UniProt O15379); assay: HDAC isozyme panel at BPS Bioscience, HDAC3; assay type: biochemical; conditions: read-out: % inhibition of HDAC3
HDAC6 = target: T1, HDAC6 (Homo sapiens, UniProt Q9UBN7); assay: HDAC isozyme panel at BPS Bioscience, HDAC6; assay type: biochemical; conditions: read-out: % inhibition of HDAC6
T1 sequence (Q9UBN7 1-1215): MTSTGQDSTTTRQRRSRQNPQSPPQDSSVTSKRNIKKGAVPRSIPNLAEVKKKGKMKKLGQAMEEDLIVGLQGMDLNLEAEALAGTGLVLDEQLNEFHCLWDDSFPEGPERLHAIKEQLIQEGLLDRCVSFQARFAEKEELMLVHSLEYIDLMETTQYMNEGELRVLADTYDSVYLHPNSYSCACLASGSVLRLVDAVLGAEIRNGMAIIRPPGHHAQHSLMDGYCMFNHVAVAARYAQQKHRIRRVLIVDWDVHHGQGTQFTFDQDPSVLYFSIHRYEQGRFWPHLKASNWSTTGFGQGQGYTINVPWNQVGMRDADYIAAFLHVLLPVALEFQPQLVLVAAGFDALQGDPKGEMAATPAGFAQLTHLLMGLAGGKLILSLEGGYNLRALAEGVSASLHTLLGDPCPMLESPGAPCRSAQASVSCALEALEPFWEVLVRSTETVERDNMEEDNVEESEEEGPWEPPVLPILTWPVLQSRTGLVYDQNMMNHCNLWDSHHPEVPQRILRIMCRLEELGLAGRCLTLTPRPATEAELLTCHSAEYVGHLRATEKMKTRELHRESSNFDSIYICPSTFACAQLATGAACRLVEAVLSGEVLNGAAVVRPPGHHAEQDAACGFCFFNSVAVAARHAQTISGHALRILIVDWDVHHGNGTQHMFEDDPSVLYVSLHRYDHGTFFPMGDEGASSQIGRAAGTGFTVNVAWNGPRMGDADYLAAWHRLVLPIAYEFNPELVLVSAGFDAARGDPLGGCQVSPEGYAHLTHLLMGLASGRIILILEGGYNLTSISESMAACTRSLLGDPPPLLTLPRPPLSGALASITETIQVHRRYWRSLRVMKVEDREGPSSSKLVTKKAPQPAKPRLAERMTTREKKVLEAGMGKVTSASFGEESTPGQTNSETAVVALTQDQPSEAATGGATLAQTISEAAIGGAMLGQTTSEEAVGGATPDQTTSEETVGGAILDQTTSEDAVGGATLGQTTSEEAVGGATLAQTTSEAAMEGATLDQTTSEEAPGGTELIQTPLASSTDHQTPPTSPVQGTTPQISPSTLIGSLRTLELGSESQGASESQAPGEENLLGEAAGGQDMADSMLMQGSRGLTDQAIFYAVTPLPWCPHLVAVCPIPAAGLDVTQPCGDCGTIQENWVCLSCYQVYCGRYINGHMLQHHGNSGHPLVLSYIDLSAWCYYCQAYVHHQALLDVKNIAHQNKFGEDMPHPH

HDAC10 = target: T2, HDAC10 (Homo sapiens, UniProt Q969S8); assay: HDAC isozyme panel at BPS Bioscience, HDAC10; assay type: biochemical; conditions: read-out: % inhibition of HDAC10
T2 sequence (Q969S8 1-669): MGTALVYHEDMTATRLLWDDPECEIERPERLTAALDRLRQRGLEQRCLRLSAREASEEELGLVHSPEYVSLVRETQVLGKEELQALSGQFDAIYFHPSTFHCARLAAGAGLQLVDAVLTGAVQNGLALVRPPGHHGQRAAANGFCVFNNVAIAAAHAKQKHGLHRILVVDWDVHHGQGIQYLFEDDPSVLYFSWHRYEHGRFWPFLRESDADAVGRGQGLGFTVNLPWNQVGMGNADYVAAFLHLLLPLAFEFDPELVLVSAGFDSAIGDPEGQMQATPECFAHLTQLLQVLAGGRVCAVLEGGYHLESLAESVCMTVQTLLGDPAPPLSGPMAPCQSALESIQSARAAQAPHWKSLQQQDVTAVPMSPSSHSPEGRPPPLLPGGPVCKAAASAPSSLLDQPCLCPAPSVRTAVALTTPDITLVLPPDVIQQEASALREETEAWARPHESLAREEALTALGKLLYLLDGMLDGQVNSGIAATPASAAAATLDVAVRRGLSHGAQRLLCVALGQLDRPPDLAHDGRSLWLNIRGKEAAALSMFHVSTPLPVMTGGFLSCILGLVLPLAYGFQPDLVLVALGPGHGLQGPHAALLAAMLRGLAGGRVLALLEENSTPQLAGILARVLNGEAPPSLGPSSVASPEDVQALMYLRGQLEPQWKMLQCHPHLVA

[1] = system: TALL-104 CTL human leukemia cells; assay: Cytotoxic T-lymphocyte; assay type: cell-based; conditions: 100 μM

Chain of HDAC1 (Q13547 whole entry): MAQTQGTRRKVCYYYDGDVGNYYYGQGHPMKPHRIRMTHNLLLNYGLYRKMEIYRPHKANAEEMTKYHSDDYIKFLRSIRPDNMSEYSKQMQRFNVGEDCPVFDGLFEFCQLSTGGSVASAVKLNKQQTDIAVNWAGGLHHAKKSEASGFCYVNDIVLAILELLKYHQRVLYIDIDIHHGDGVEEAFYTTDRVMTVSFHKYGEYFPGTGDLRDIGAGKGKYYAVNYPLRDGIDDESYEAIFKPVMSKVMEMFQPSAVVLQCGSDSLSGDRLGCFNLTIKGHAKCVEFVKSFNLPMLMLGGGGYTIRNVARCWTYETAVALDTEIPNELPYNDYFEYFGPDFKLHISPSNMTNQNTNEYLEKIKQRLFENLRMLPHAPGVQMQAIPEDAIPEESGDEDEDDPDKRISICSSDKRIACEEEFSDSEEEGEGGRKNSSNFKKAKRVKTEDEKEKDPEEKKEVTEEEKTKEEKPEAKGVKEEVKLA
Chain of HDAC3 (O15379 whole entry): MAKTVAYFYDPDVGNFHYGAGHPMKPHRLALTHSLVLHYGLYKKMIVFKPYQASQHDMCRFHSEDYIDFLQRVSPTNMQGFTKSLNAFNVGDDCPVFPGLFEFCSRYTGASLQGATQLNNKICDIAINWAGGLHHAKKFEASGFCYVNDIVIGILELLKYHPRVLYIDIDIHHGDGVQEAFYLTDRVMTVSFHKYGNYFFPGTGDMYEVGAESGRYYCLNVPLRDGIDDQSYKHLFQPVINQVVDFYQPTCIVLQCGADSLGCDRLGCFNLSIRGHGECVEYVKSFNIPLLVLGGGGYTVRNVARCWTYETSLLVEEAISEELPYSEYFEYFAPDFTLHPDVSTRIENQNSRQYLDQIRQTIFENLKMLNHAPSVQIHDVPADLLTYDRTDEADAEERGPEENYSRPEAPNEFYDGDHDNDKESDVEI
Chain of HDAC3 (Q9Y618 395-489 partner limits assumed): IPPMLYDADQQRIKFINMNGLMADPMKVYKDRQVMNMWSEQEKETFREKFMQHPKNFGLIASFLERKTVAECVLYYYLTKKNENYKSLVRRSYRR

Row | Compound | inhibition at 10 µM (HDAC1) [%] | inhibition at 10 µM (HDAC3) [%] | inhibition at 10 µM (HDAC6) [%] | inhibition at 10 µM (HDAC10) [%] | augmentation of CD3-stimulated anti-LAMP fluorescence increases (lytic granule exocytosis) [1] [%]
1 | O=C(CCCCCCC(=O)Nc1ccccc1)NO [SAHA, suberoylanilide hydroxamic acid] | 100 ± 0.3 | 99 ± 0.7 | 100 | 100 | 
2 | CCOC(=O)NCCCC(=O)Nc1ccc(CO[Si](C)(C)C(C)(C)C)cc1 [Compound 27, Ethyl (4-((4-(((tert-butyldimethylsilyl)oxy)methyl)phenyl)amino)-4-oxobutyl)carbamate] |  |  |  |  | 26
3 | CCOC(=O)NCCCC(=O)Nc1ccc(O[Si](C)(C)C(C)(C)C)cc1 [Compound 28, Ethyl (4-((4-((tert-butyldimethylsilyl)oxy)phenyl)amino)-4-oxobutyl)carbamate] |  |  |  |  | 71
